From patent US7067520B2, “Preventive or therapeutic medicines for diabetes containing fused-heterocyclic compounds or their salts” (Ishihara Sangyo Kaisha, Ltd., priority 2000, dated 2006)

Assays:
L6 cells = assay: Glucose uptake test by L6 cells; assay type: cell-based; conditions: Rattus norvegicus, 1 hour, 2-deoxy-[3H]-glucose uptake, control (MEM solvent alone) = 100%, read-out: Ratio activity (%); for activity at 100 µg/mL: treatment concentration 100 μg/ml; for activity at 10 µg/mL: treatment concentration 10 μg/ml
Procedure: Glucose Uptake Test by L6 Cells
Each of compounds under test was applied to L6 cells (rat cells originally derived from skeletal muscles) by the following method to measure the stimulating effect on glucose uptake. Namely, L6 cells were suspended in α-minimum essential medium (hereinafter referred to simply as MEM) containing 10% fetal bovine serum (hereinafter referred to simply as FBS), and inoculated into a 96-well plastic plate in an amount of 5×10^4 cells/well and cultivated in an incubator (5% carbon dioxide gas, 37° C.) until the cells grew all over the well. Then, the culture medium was switched to MEM solution containing 2% BS, followed by cultivation further for from 7 to 10 ays (the culture medium was exchanged every three days) to differentiate the cells into skeletal muscle cells. Then, the culture medium was replaced with MEM solution without FBS, followed by cultivation for three hours, and then the compound under test prepared to a treatment concentration (diluted with MEM solution without FBS) was reacted with the skeletal muscle cells at 37° C. for 1 hour. The cells were washed with Krebs-Henseleit-Ringer buffer solution (hereinafter referred to simply as KHR buffer solution), and 2-deoxy-[^3H]-glucose was added to the cells in the KHR buffer solution, followed by treatment at 37° C. for 10 minutes. The treatment solution was removed, the cells were washed with the KHR buffer solution, then the cells were dissolved in a 1N sodium hydroxide solution in an appropriate amount, and the [^3H] radio activity was measured by means of a liquid scintillation counter (cpm) The percentage of the glucose uptake was represented by the percentage of radio activity when the compound under test was applied, taking the radio activity of the control (the MEM solvent alone was applied) as 100%. Each of the compounds as identified in Table 27 was used for treatment at a concentration of each of 10 μg/ml and 100 μg/ml to examine the stimulating effect on glucose uptake.

SMILES: CSc1nc2cc(-c3ccccc3)nn2c(NCc2ccncc2)c1C#N [compound 48]
- activity at 100 µg/mL (L6 cells): > 115%
- melting point: 232 °C

SMILES: Cc1nc2ccnn2c(NCc2ccncc2)c1C#N [compound 29]
- activity at 100 µg/mL (L6 cells): > 115%
- melting point: 165 °C

SMILES: C#CCOc1c(C#N)c(SC)nc2ccnn12 [compound 53]
- activity at 100 µg/mL (L6 cells): > 115%
- melting point: 183 °C

SMILES: CSc1nc2ccnn2c(Nc2ccc3c(c2)OCO3)c1C#N [compound 211]
- activity at 10 µg/mL (L6 cells): > 115%
- activity at 100 µg/mL (L6 cells): > 115%
- melting point: 158 to 159 °C

SMILES: CSc1nc2ccnn2c(Nc2ccc(C#N)cc2)c1C#N [compound 168]
- activity at 10 µg/mL (L6 cells): > 115%
- activity at 100 µg/mL (L6 cells): > 115%
- melting point: 280 to 281 °C

SMILES: CCOC(=O)c1c(SC)nc2ccnn2c1Nc1ccc([N+](=O)[O-])cc1 [compound 226]
- activity at 10 µg/mL (L6 cells): > 115%
- activity at 100 µg/mL (L6 cells): > 115%
- melting point: 170 °C

SMILES: CSc1nc(NCc2ccncc2)n2nccc2n1 [compound 40]
- activity at 10 µg/mL (L6 cells): > 115%
- activity at 100 µg/mL (L6 cells): > 115%
- melting point: 136 °C

SMILES: C#CCNc1c(C#N)c(C)nc2ccnn12 [compound 22]
- activity at 10 µg/mL (L6 cells): > 115%
- activity at 100 µg/mL (L6 cells): > 115%
- melting point: 169 °C

SMILES: CCOC(=O)c1c(SC)nc2ccnn2c1Nc1cccc([N+](=O)[O-])c1 [compound 225]
- activity at 10 µg/mL (L6 cells): > 115%
- melting point: 166 to 168 °C

SMILES: COc1nc2ccnn2c(NCC2OCCO2)c1C#N [compound 136]
- activity at 10 µg/mL (L6 cells): > 115%
- activity at 100 µg/mL (L6 cells): > 115%
- melting point: 148.3 to 149.7 °C

SMILES: C#CCNc1nc(SC)nc2ccnn12 [compound 64]
- activity at 10 µg/mL (L6 cells): > 115%
- melting point: 175 °C

SMILES: COC(=O)c1c(SC)nc2ccnn2c1NOC1OCCO1 [compound 133]
- activity at 10 µg/mL (L6 cells): > 115%
- melting point: 126.5 to 127.5 °C

SMILES: CCOC(=O)c1c(SC)nc2ccnn2c1Nc1cccc(C#N)c1 [compound 223]
- activity at 10 µg/mL (L6 cells): > 115%
- activity at 100 µg/mL (L6 cells): > 115%
- melting point: 156 to 157 °C

SMILES: C#CCNc1c(S(=O)(=O)c2ccccc2)c(SC)nc2ccnn12 [compound 60]
- activity at 10 µg/mL (L6 cells): > 115%
- melting point: 162 to 163 °C

SMILES: CSc1nc2cc(C)nn2c(Nc2cccc(C)c2)c1C#N [compound 191]
- activity at 10 µg/mL (L6 cells): > 115%
- melting point: 174 to 176 °C

SMILES: CSc1nc2ccnn2c(NCc2cccnc2)c1C#N [compound 4]
- activity at 100 µg/mL (L6 cells): > 115%
- melting point: 192 °C

SMILES: Cc1nc2ccnn2c(NCCc2ccccc2)c1C#N [compound 27]
- activity at 100 µg/mL (L6 cells): > 115%
- melting point: 143 °C

SMILES: COC(=O)c1c(SC)nc2ccnn2c1NCc1ccccc1 [compound 121]
- activity at 100 µg/mL (L6 cells): > 115%
- melting point: 158.5 to 160.5 °C

SMILES: CSc1nc2ccnn2c(NCCc2ccccn2)c1C#N [compound 206]
- activity at 10 µg/mL (L6 cells): > 115%
- melting point: 138 to 139 °C

SMILES: N#Cc1c(SC2CCCC2)nc2ccnn2c1NCc1ccncc1 [compound 105]
- activity at 10 µg/mL (L6 cells): > 115%
- melting point: 153.4 to 155.4 °C

SMILES: CCOC(=O)c1c(SC)nc2ccnn2c1NCc1ccncc1 [compound 221]
- activity at 10 µg/mL (L6 cells): > 115%
- activity at 100 µg/mL (L6 cells): > 115%
- melting point: 123 °C

SMILES: CSc1nc2ccnn2c(NCCc2ccncc2)c1C#N [compound 215]
- activity at 10 µg/mL (L6 cells): > 115%
- melting point: 184 to 185 °C

SMILES: CSc1nc2ccnn2c(Nc2ccc(Cl)cc2)c1C#N [compound 161]
- activity at 10 µg/mL (L6 cells): > 115%
- melting point: 275 to 276 °C

SMILES: CSc1nc2cc(C)nn2c(NOCc2ccccc2)c1C#N [compound 190]
- activity at 100 µg/mL (L6 cells): > 115%
- melting point: 155 to 156 °C

SMILES: CCSc1nc2ccnn2c(NCc2ccncc2)c1C#N [compound 68]
- activity at 10 µg/mL (L6 cells): > 115%
- activity at 100 µg/mL (L6 cells): > 115%
- melting point: 196 to 196.4 °C

SMILES: CSc1nc2ccnn2c(Nc2ccccc2C)c1C#N [compound 203]
- activity at 10 µg/mL (L6 cells): > 115%
- melting point: 192 to 194 °C

SMILES: CCOCSc1nc2ccnn2c(NCc2ccncc2)c1C#N [compound 118]
- activity at 10 µg/mL (L6 cells): > 115%
- activity at 100 µg/mL (L6 cells): > 115%
- melting point: 160 to 161.6 °C

SMILES: CCOC(=O)c1c(SC)nc2ccnn2c1NCc1ccccc1 [compound 222]
- activity at 10 µg/mL (L6 cells): > 115%
- melting point: 114 to 115 °C

SMILES: CSc1nc2ccnn2c(Nc2ccccc2)c1C#N [compound 80]
- activity at 10 µg/mL (L6 cells): > 115%
- melting point: 195 to 196 °C

SMILES: CCNc1c(C#N)c(SC)nc2ccnn12 [compound 15]
- activity at 100 µg/mL (L6 cells): > 115%
- melting point: 133 °C

SMILES: COCSc1nc2ccnn2c(NCc2ccncc2)c1C#N [compound 108]
- activity at 100 µg/mL (L6 cells): > 115%
- melting point: 164 to 165.5 °C (dec.)

SMILES: CSc1nc2ccnn2c(Nc2cccc([N+](=O)[O-])c2)c1C#N [compound 218]
- activity at 10 µg/mL (L6 cells): > 115%
- activity at 100 µg/mL (L6 cells): > 115%
- melting point: 180 to 182 °C

SMILES: CSc1nc2ccnn2c(NCCCn2ccnc2)c1C#N [compound 83]
- activity at 100 µg/mL (L6 cells): > 115%
- melting point: 144 to 146 °C

SMILES: CSc1nc2ccnn2c(Nc2ccc(C)cc2)c1C#N [compound 164]
- activity at 10 µg/mL (L6 cells): > 115%
- melting point: 201 to 202 °C

SMILES: CSc1nc2nc3ccccc3n2c(NCc2ccccc2)c1C#N [compound 47]
- activity at 100 µg/mL (L6 cells): > 115%
- melting point: 233 °C

SMILES: CSc1nc2ccnn2c(N(C)C)c1C#N [compound 17]
- activity at 100 µg/mL (L6 cells): > 115%
- melting point: 144 °C

SMILES: CCOC(=O)c1c(SC)nc2ccnn2c1Nc1ccc(C#N)cc1 [compound 224]
- activity at 10 µg/mL (L6 cells): > 115%
- melting point: 178 °C

SMILES: CNc1c(C#N)c(SC)nc2ccnn12 [compound 14]
- activity at 100 µg/mL (L6 cells): > 115%
- melting point: 216 °C

SMILES: Cc1nc2ccnn2c(N)c1C#N [compound 25]
- activity at 100 µg/mL (L6 cells): > 115%

SMILES: CSc1nc2ccnn2c(Nc2cc(C)ns2)c1C#N [compound 177]
- activity at 100 µg/mL (L6 cells): > 115%
- melting point: 175 to 176 °C

SMILES: CSc1nc2ccnn2c(NOCc2ccccc2)c1C#N [compound 172]
- activity at 10 µg/mL (L6 cells): > 115%
- activity at 100 µg/mL (L6 cells): > 115%
- melting point: 177 to 178 °C

SMILES: CSc1nc2ccnn2c(Nc2cccnc2)c1C#N [compound 178]
- activity at 10 µg/mL (L6 cells): > 115%
- activity at 100 µg/mL (L6 cells): > 115%
- melting point: 214 to 215 °C

SMILES: CSc1nc2nccn2c(NCc2ccncc2)c1C#N [compound 43]
- activity at 10 µg/mL (L6 cells): > 115%
- activity at 100 µg/mL (L6 cells): > 115%
- melting point: 204 °C

SMILES: CSc1nc2ccnn2c(NCc2ncc(C(F)(F)F)cc2Cl)c1C#N [compound 207]
- melting point: 185 to 187 °C

SMILES: CSc1nc2ccnn2c(NCCC(C)C)c1C#N [compound 19]
- melting point: 87 to 88 °C

SMILES: CSc1nc2nc(SC)c(C#N)c(NCc3ccccc3)n2n1 [compound 36]
- melting point: 154 °C

SMILES: CSc1nc2cc(C)nn2c(O)c1C#N [compound 184]
- melting point: > 250 °C

SMILES: CCC(CC)Sc1nc2ccnn2c(NCc2ccncc2)c1C#N [compound 115]
- melting point: 129 to 133.4 °C

SMILES: CSc1nc2ccnn2c(Nc2ccc(C(N)=O)cc2)c1C#N [compound 197]
- melting point: > 280 °C

SMILES: CSc1nc2ccnn2c(N)c1S(C)(=O)=O [compound 58]
- melting point: 230 to 233 °C

SMILES: COC(=O)c1c(SC)nc2ccnn2c1Nc1ccccc1 [compound 122]
- activity at 10 µg/mL (L6 cells): > 115%
- activity at 100 µg/mL (L6 cells): > 115%

SMILES: CSc1nc2ccnn2c(NOCCC2OCCCO2)c1C#N [compound 217]
- melting point: 193 to 195 °C

SMILES: N#Cc1c(C2CCCCC2)nc2ccnn2c1N [compound 91]
- melting point: > 250 °C

SMILES: CSc1nc2ccnn2c(Nc2ccc(S(=O)(=O)N(C)C)cc2)c1C#N [compound 150]
- melting point: 303 to 306 °C (dec.)

SMILES: CSc1nc2ccnn2c(NCc2ccc([N+](=O)[O-])cc2)c1C#N [compound 16]
- melting point: 215 °C

SMILES: CSc1nc2ccnn2c(NCC#N)c1C#N [compound 84]
- melting point: 207 °C

SMILES: CSc1nc2ccnn2c(Nc2ccc(S(N)(=O)=O)cc2)c1C#N [compound 149]
- melting point: 285 to 288 °C (dec.)

SMILES: COC(=O)c1c(SC)nc2ccnn2c1Cl [compound 119]
- melting point: 105 to 113 °C

SMILES: N#Cc1c(Cc2ccccc2)nc2ccnn2c1N [compound 87]
- melting point: 242 °C

SMILES: CSc1nc2ccnn2c(NCCC2OCCCO2)c1C#N [compound 216]
- melting point: 103 to 104 °C

SMILES: CCN(Cc1ccncc1)c1c(C#N)c(SC)nc2ccnn12 [compound 228]
- melting point: 102 to 103 °C

SMILES: CSc1nc2c(Br)cnn2c(N)c1C#N [compound 54]
- melting point: > 250 °C

SMILES: CSc1nc2ccnn2c(NOCC2CCCO2)c1C#N (stereo not shown) [compound 213]
- melting point: 143 to 144 °C

SMILES: CSc1nc2ccnn2c(NOCc2ccccc2)c1C(=O)O [compound 132]
- activity at 100 µg/mL (L6 cells): > 115%
